Test results as given in patent US20020102262A1, “Collagen binding protein compositions and methods of use” (priority 1996, published 2002).
Values joined by “and” are separate entries in the source; they are usually repeats but may differ in a detail not shown here. Equal values may be shown once.

Columns and labels:
[1] = biological target: type II Col (collagen type II); experiment: peptide at 10 µM, inhibition of ^125I-labeled Col binding to S. aureus cells
[2] = biological target: type II Col (collagen type II); experiment: peptide (5 µM) incubated with ^125I-Col before addition of S. aureus cells
[3] = tested on: αCBD(151-297) IgG; experiment: Neutralization of the inhibitory activity of αCBD(151-297) IgG by synthetic CBD peptides; type: binding, rabbit
Procedure: The different synthetic CBD peptides described above and shown to react with the αCBD(151-297) IgG were assayed for their potential to neutralize the inhibitory activity of the antibody. The αCBD(151-297) IgG (12 μg) was preincubated with a single dose (100 μg) of each peptide in step one. The S. aureus cells were then added and the preincubation continued. Finally, the ^125I-labeled type II Col was added. Peptide CBD4 neutralized 68% of αCBD(151-297) IgG inhibitory activity, while the other peptides tested had little or no effect. […] Although other peptide sequences were more immunogenic than CBD4, the antibodies recognizing the corresponding epitopes were not inhibitory.
(§1) To further investigate the interaction between peptide CBD4 and αCBD(151-297) IgG and its affect on Col binding, a fixed concentration of the antibody was incubated with an increasing amount of peptide CBD4. […] Thus, a relatively small reduction in inhibition could be easily detected.

[4] = tested on: S. aureus; experiment: Inhibition of binding of 125I-labeled type II Col to S. aureus cells; design: species or system Staphylococcus aureus
Procedure: Purified αCBD(151-297) IgG inhibited the binding of S. aureus to ^125I-labeled Col in a dose-dependent manner.
as §1
Peptide CBD7 which reacted strongly with αCBD(151-297) IgG in the ELISA assay was also tested. […] Five μM CBD4 inhibited binding by over 50%.
To identify residues within CBD4 necessary for Col binding synthesized several smaller overlapping peptides were synthesized. A series of peptides that contained a 2 amino-terminal residues and one peptide that contained a 2 amino acid deletion at the carboxyl terminus were made. The peptides (10 μM) were assayed for their ability to inhibit the binding of ^1251I-labeled Col to S. aureus. Peptide CBD4 inhibited Col binding by 76%, whereas all peptides containing amino-terminal truncations had little activity at the concentration tested.

[5] = tested on: αCBD(151-297) IgG; experiment: ELISA reactivity of αCBD(151-297) IgG with eight 25-amino-acid synthetic CBD peptides; type: binding, rabbit; settings: 25-amino-acid synthetic peptides as targets
Procedure: Rabbits were immunized with […] as described. Sera were also collected prior to immunization and tested for reactivity to CBD(151-297). The reactivity of the antiserum with different segments of CBD(151-297) was tested in an ELISA using a series of eight 25-amino-acid long synthetic peptides with partially overlapping sequences as targets. Purified IgG reacted strongly with peptides 2, 3, 5, 6, and 7 and weakly with peptides 1, 4, and 8. When preimmune IgG was tested with the CBD peptides, little reaction could be detected. The relative immunological reactivity of the different peptides correlated closely with their antigenic index using the algorithm of Jameson and Wolf (1988).

[6] = biological target: M55 (Staphylococcus aureus, UniProt Q53654); settings: animals immunized with M55 and infected with a sub-lethal dose S. aureus
Sequence of M55 (Q53654 18-529, looked up, natural form): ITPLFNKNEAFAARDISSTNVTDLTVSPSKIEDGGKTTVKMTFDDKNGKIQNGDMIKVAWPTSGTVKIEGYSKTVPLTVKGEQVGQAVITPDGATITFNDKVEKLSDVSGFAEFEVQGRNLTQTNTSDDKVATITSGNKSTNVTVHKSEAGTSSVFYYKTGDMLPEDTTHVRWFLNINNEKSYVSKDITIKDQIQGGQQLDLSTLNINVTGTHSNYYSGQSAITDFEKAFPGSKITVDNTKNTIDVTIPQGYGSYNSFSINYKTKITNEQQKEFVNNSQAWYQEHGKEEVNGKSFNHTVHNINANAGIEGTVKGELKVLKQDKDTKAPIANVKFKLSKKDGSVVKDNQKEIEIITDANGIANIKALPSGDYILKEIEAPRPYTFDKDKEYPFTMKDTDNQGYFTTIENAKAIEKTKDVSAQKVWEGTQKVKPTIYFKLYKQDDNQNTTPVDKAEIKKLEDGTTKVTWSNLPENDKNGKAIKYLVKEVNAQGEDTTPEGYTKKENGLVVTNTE
Procedure: Serum level of specific antibodies against the collagen adhesion peptide M55 was measured by an enzyme-linked immunosorbent assay (ELISA). 96-well microplates (Nunc) were coated overnight at 4° C. with 2 μg/ml of M55 peptide. Blocking was done with 0.5% ovalbumin (Sigma Chemical Co., St. Louis, MO) dissolved in 0.05 M Tris (pH 7.7). Sera, biotinylated antibodies, the ExtrAvidin-peroxidase (Sigma) were all diluted in 0.05 M Tris (pH7.4)-0.015 M NaCl. The plates were incubated overnight at 4° C. with sera, washed and incubated stepwise with biotinylated goat anti-mouse IgG antibody (Jackson Immuno Research Laboratories, Inc., West Grove, PA), ExtrAvidin-peroxidase (0.5 μg/ml; Sigma) and ABTS substrate. The A405 was measured in a Titertec Multiscan photometer (Flow Laboratories, McLean, Va.). […] OVA was used as control solid antigen.

[7] = tested on: S. aureus strain Phillips; experiment: Mouse sepsis model, active immunization, intravenous challenge with S. aureus expressing CBP; type: in vivo, mice
Description: Gram-positive bacteria related sepsis is on the increase. In fact between one-third and one-half of all cases of sepsis are caused by gram-positive bacteria, particularly S. aureus and S. epidermidis. In the United States, it can be estimated that over 200,000 patients will develop gram-positive related sepsis this year. […] Mice were immunized subcutaneously with either M55 or a control antigen (bovine serum albumin) and then challenged intravenously with S. aureus. Eighty-three percent (35/42) of the mice immunized with M55 survived compared to only 27% of the BSA immunized mice (12/45). This is a compilation of 3 separate studies.
Day -31: 100μg/mouse of a CBP Epitope (i.e. M17, M31, or M55) or BSA emulsified with Freund's Complete adjuvant (Difco Laboratories) as a control.
Day -18: 100μg/mouse of a CBP Epitope (ie. M17, M31, or M55) or BSA dissolved in sterile phosphate buffered saline (PBS)
Day -7: 100μg/mouse of a CBP Epitope (i.e. M17, M31, or M55) or BSA dissolved in PBS
Day 0: inoculate intravenously S. aureus strain Phillips (which expresses CBP) (Dose: 2.8×10^7 cfu/mouse)
Day 14: end of study; all surviving mice were euthanized.

[8] = tested on: strain of S. aureus that does not express the Col-binding MSCRAMM; experiment: Mouse sepsis control study, challenge with S. aureus not expressing the Col-binding MSCRAMM; type: in vivo; settings: immunized mice, challenge strain without Col-binding MSCRAMM
Description: The mortality in the M55 group was 50% compared to 30% in the BSA group.

[9] = biological target: type II Col (collagen type II); experiment: BIAcore, immobilized type II Col; three-component dissociation, the two fastest components
[10] = biological target: type II Col (collagen type II); experiment: BIAcore, immobilized type II Col; three-component dissociation, the slowest component
[11] = biological target: type II Col (collagen type II); experiment: BIAcore, immobilized type II Col; Scatchard analysis or Equation 1
[12] = biological target: immobilized type II Col (Homo sapiens, UniProt P02458); experiment: BIAcore analysis of CBD(30-529) and mutants on immobilized type II Col; type: binding
Sequence of immobilized type II Col (P02458 182-1241 limits assumed): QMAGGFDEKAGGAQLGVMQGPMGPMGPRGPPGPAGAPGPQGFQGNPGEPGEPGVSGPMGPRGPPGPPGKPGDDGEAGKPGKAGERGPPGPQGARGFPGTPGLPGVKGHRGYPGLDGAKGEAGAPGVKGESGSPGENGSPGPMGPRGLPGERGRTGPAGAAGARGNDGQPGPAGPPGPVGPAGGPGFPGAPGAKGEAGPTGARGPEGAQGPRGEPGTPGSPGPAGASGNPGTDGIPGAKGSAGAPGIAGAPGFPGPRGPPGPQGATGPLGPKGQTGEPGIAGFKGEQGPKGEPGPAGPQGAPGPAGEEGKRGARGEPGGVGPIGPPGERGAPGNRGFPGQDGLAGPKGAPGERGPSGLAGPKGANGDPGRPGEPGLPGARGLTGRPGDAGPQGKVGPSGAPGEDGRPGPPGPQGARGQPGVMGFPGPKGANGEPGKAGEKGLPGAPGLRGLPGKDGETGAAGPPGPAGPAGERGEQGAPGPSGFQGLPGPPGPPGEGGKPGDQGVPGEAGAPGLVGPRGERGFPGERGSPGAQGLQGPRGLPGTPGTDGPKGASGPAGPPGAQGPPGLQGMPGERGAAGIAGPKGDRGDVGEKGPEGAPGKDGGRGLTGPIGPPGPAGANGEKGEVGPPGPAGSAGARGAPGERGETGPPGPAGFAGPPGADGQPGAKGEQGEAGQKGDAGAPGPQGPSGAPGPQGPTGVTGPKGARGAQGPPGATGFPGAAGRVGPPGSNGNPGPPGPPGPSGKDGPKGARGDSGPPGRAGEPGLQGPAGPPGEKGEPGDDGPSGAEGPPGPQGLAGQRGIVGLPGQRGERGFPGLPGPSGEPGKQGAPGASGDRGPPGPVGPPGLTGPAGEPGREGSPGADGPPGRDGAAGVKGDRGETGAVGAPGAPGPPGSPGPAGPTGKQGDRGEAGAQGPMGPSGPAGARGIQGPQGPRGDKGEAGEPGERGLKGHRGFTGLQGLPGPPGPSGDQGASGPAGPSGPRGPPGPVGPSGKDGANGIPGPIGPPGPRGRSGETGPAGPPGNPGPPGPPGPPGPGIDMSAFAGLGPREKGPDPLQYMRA
Description: The importance of amino acid residues Asn^232 and Tyr ^33 in the MSCRAMM for Col binding was examined by creating specific mutants of CBD (30-529) and characterizing the interactions of these mutants with immobilized type II Col using the BlAcore. In the mutations made, the identified amino acid residues were replaced individually, (N^232 →A, Y^233 →A) or as a pair, (N^232 →A:Y^233→A) with alanine, a residue that is not expected to interfere with the existing secondary structure. The corresponding base changes were made using overlap extension PCR™ as described and the sequence changes confirmed experimentally. The recombinant proteins containing the mutations were purified to homogeneity by metal ion chelating chromatography.
True equilibrium was not obtained during the injection time period due to the slow dissociation rate (koff). […] The dissociation phase gives information about the koff, and this rate is independent of the number of binding sites, analyte concentration, and flow rate. […] The association phase contains the information to determine the association rate koff the interaction, but it is also influenced by the dissociation rate, the number of binding sites for each interaction, and the concentration of the analyte. Because of the complexity of this interaction and the absence of measurable equilibrium data, it was not possible to determine the binding constant (KD), apparent binding ratio (BRapp), and kon.

[13] = subcutaneous immunization, intravenous challenge, compilation of 3 separate studies

Sequence of type II Col (collagen type II) (P02459 182-1241): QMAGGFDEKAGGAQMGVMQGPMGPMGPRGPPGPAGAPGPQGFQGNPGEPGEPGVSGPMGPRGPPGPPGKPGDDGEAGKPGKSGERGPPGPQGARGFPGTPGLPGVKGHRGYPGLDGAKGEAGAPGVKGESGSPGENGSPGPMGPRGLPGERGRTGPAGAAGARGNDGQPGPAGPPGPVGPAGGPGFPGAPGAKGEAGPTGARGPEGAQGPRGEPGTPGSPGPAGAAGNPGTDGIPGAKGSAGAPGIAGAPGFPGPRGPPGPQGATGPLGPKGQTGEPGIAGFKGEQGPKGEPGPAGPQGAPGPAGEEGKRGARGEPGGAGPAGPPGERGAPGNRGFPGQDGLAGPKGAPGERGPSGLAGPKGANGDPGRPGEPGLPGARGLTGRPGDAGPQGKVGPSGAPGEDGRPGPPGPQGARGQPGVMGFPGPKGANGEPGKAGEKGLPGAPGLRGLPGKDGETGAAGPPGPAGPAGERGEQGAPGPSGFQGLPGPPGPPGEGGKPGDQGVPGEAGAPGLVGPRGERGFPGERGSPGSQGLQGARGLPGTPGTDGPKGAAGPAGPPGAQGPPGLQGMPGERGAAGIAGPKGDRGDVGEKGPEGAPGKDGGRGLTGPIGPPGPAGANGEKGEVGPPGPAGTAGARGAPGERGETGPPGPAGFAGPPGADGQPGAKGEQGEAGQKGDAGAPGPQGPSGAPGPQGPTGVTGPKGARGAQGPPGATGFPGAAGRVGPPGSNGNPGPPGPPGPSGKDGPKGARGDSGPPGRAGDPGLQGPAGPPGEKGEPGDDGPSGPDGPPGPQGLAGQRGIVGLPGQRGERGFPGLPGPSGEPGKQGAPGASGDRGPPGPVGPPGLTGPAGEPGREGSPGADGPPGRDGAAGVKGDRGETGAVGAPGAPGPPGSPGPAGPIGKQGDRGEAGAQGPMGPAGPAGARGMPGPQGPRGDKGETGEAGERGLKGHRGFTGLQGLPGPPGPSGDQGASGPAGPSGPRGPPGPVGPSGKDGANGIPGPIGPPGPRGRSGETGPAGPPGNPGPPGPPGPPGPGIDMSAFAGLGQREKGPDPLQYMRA

## Peptide CBD4 (from UniProt Q53654 209-233)
[1]
  percent inhibition of ^125I-labeled Col binding to S. aureus: 76%
[2]
  percent inhibition of ^125I-Col binding to S. aureus: > 50%

## CBD4: 25-amino-acid synthetic peptide, amino acids 209-233 (Asp209 to Tyr233) of S. aureus CBP (DQIQGGQQLDLSTLNINVTGTHSNY)
[3]; 100 μg peptide, IgG 12 μg/ml
  effect of peptide on Col binding to S. aureus in presence of αCBD(151-297) IgG: restored the level of Col binding to S. aureus observed in absence of αCBD(151-297) IgG
[3]; IgG 12 μg preincubated with single dose 100 μg peptide
  neutralization of αCBD(151-297) IgG inhibitory activity: 68%
[4]; Five μM peptide incubated with 125I-Col before S. aureus
  inhibition of 125I-Col binding to S. aureus: over 50%
[4]; increasing amounts of peptide preincubated with 125I-Col
  direct inhibition of 125I-Col binding to S. aureus: inhibited in a dose-dependent manner
[4]; peptide 10 μM
  inhibition of binding of 125I-labeled Col to S. aureus: 76%
[5]
  reactivity with purified αCBD(151-297) IgG in ELISA: weakly

## M55: recombinant His-tagged S. aureus Col-binding MSCRAMM derivative, amino acids 30-531 of full length CBP (SEQ ID NO:6)
[6]
  anti-M55 IgG (Col MSCRAMM) titers: 32×10^9 units/ml
[7]; 100μg/mouse on days -31, -18, -7, 2.8×10^7 cfu/mouse i.v. day 0, end day 14
  mice died/total: 4/11
[7]; in words
  protection against sepsis: highly effective in protecting against sepsis
[7]; [13]
  percent of mice surviving: Eighty-three
  surviving mice/total mice: 35/42
[8]
  mortality: 50%

## CBD (30-529), recombinant S. aureus Col MSCRAMM fragment (wild type) (from UniProt Q53654 30-529)
[9]
  koff: > 0.01 s⁻¹
[10]
  koff: 0.0005 s⁻¹

## CBD (30-529) N^232→A:Y^233→A (from UniProt Q53654 30-529)
[11]
  BRapp (apparent binding ratio): 2 sites and 3 sites

B1: double mutant (protein)
chain: ARDISSTNVTDLTVSPSKIEDGGKTTVKMTFDDKNGKIQNGDMIKVAWPTSGTVKIEGYSKTVPLTVKGEQVGQAVITPDGATITFNDKVEKLSDVSGFAEFEVQGRNLTQTNTSDDKVATITSGNKSTNVTVHKSEAGTSSVFYYKTGDMLPEDTTHVRWFLNINNEKSYVSKDITIKDQIQGGQQLDLSTLNINVTGTHSAAYSGQSAITDFEKAFPGSKITVDNTKNTIDVTIPQGYGSYNSFSINYKTKITNEQQKEFVNNSQAWYQEHGKEEVNGKSFNHTVHNINANAGIEGTVKGELKVLKQDKDTKAPIANVKFKLSKKDGSVVKDNQKEIEIITDANGIANIKALPSGDYILKEIEAPRPYTFDKDKEYPFTMKDTDNQGYFTTIENAKAIEKTKDVSAQKVWEGTQKVKPTIYFKLYKQDDNQNTTPVDKAEIKKLEDGTTKVTWSNLPENDKNGKAIKYLVKEVNAQGEDTTPEGYTKKENGLVVTNTE
[12]
  affinity and apparent binding ratio compared to wild type: even more significant decreasesin affinity and apparent binding ratio
[12]; Scatchard analysis or Equation 1
  apparent binding ratio (BRapp): approximately two to three high affinity sites
